Reference: paper PMC8893300, “A Dynamic Mass Redistribution Assay for the Human Sweet Taste Receptor Uncovers G-Protein Dependent Biased Ligands” (Frontiers in Pharmacology, 2022)

Key:
[1] = test system: S1P response in R2/R3 U2OS cells; assay: Pathway blockers on S1P-mediated DMR response in R2/R3 U2OS cells; settings: for % inhibition of the S1P DMR response: PTx overnight, U0126 2 μM, GF109203x 5 μM, GW583340 10 μM, tyrphostin 1 μM, GSK269962 2 μM, mean ± sd or average of two experiments
Description: (§1) Blocker stocks (250x) were prepared in DMSO or water and stored as aliquots at −20°C. Just before use, they were diluted to 2X their final concentration in assay buffer (D-PBS) at a final concentration of 0.4% DMSO. Concentrated stock solutions of the agonists somatostatin, carbachol, EGF, and sucralose were made in water or D-PBS while S1P was made up in 50% EtOH. Just before use, the agonists were diluted to 5X their final concentration in D-PBS at a final concentration of 0.4% DMSO. Final agonist concentrations were 10 μM somatostatin, 100 μM carbachol, 100–300 ng/ml EGF, 2 mM sucralose and 1 μM S1P. R2/R3 U2OS cells were plated as described above. The following day cells were washed on the Epic® with D-PBS/0.4% DMSO leaving a residual volume of 10 μl. 10 μl of D-PBS/0.4% DMSO was added to each well by hand followed by 20 μl of 2X pathway blocker. Cell plates were equilibrated on the Epic® for 90 min. After recording the baseline activity for 5 min, 10 μl of 5X agonist was added using the LHA and the DMR responses were monitored for an additional 40 min.
(§2) Cells were equilibrated at room temperature for 90 min in the Epic® reader with the indicated concentrations of pathway blockers or latrunculin A. In the case of PTx, cells were incubated over night at 37°C and on the day of the experiment PTx was replaced with buffer and cells were equilibrated in the Epic® reader as described above. A 5x-concentrated stock of agonist was then added onto the cells and DMR responses were recorded as described in Materials and Methods. […] Two to eight independent experiments were conducted with each blocker (number of independent experiments are indicated on the bar graph).

[2] = test system: EGF response in R2/R3 U2OS cells; assay: Pathway blockers on EGF-mediated DMR response in R2/R3 U2OS cells; settings: for % inhibition of the EGF DMR response / effect on the EGF DMR response, in words: 100–300 ng/ml EGF; for % inhibition of the EGF DMR response: PTx overnight, wortmannin 200 nM, U0126 2 μM, GF109203x 5 μM, mean ± sd; for effect on the EGF DMR response, in words: latrunculin A 1 μM, GW583340 10 μM, tyrphostin 1 μM, GSK269962 2 μM
Description: as §1, §2

[3] = test system: sucralose response (sweet taste receptor) in R2/R3 U2OS cells; assay: Pathway blockers on sucralose-mediated DMR response in R2/R3 U2OS cells; settings: for effect on the sucralose DMR response, in words: latrunculin A 1 μM, PTx overnight, wortmannin 200 nM, U0126 2 μM
Description: as §1, §2

[4] = test system: carbachol response in R2/R3 U2OS cells; assay: Pathway blockers on carbachol-mediated DMR response in R2/R3 U2OS cells; settings: for effect on the carbachol DMR response, in words: latrunculin A 1 μM, wortmannin 200 nM, U0126 2 μM, GSK269962 2 μM
Description: as §1, §2

[5] = test system: somatostatin response in R2/R3 U2OS cells; assay: Pathway blockers on somatostatin-mediated DMR response in R2/R3 U2OS cells; settings: for effect on the somatostatin DMR response, in words: latrunculin A 1 μM, wortmannin 200 nM, U0126 2 μM, GSK269962 2 μM
Description: as §1, §2

parental U2OS cells = assay: DMR assay on parental U2OS cells (receptor-independent responses); type: cell-based
Description: The plates were incubated in the tissue culture hood for 20 min to allow cells to settle evenly at the bottom of the microplate and further cultured at 37°C in an atmosphere of 5% CO2 for 18–24 h. The next day, the cells were subjected to functional analysis using DMR. The lidded Epic® 384 microplate and polypropylene compound plate (Corning) were loaded into the carousel of the Epic® reader, the target plate was washed with DMSO matched D-PBS using the Corning Epic® Liquid Handling Accessory (LHA) and equilibrated in 25 μl of DMSO matched D-PBS for 90 min. […] When indicated, data for agonist dose-responses were normalized to data obtained with a maximum concentration of sucralose (1 mM) and then fitted and plotted using GraphPad Prism (San Diego, CA) and non-linear regression analysis.

[6] = biological target: T1, human sweet taste receptor (hT1R2/hT1R3) coupled to Gα15 (Homo sapiens, UniProt Q7RTX0+Q8TE23); assay: FLIPR calcium mobilization assay, R2/R3 U2OS cells transduced with Gα15 baculovirus; type: cell-based; settings: R2/R3 U2OS cells transduced with Gα15
T1 construct: expressed in transfected cells
T1 sequence (Q8TE23 20-839): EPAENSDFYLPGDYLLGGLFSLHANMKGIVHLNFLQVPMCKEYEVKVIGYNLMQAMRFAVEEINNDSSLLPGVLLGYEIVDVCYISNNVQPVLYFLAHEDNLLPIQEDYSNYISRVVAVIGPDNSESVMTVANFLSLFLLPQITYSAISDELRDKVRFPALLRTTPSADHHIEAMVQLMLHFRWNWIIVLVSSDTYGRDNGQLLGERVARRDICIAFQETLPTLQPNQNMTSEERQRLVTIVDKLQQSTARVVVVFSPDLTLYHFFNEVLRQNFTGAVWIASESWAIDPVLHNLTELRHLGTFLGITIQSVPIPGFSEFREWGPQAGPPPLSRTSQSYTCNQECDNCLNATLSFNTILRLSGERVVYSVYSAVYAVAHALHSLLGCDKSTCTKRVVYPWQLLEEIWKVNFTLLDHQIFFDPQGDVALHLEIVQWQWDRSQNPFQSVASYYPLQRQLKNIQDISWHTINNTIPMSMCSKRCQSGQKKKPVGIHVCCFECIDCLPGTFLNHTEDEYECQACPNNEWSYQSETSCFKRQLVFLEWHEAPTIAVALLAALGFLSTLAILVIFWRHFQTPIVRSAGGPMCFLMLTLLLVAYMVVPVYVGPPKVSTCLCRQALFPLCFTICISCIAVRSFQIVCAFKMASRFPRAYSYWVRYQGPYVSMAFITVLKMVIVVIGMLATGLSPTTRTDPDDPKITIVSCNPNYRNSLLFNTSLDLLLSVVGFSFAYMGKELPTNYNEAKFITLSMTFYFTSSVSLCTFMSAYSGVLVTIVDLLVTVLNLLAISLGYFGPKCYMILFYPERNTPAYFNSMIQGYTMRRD
T1 sequence (Q7RTX0 21-852): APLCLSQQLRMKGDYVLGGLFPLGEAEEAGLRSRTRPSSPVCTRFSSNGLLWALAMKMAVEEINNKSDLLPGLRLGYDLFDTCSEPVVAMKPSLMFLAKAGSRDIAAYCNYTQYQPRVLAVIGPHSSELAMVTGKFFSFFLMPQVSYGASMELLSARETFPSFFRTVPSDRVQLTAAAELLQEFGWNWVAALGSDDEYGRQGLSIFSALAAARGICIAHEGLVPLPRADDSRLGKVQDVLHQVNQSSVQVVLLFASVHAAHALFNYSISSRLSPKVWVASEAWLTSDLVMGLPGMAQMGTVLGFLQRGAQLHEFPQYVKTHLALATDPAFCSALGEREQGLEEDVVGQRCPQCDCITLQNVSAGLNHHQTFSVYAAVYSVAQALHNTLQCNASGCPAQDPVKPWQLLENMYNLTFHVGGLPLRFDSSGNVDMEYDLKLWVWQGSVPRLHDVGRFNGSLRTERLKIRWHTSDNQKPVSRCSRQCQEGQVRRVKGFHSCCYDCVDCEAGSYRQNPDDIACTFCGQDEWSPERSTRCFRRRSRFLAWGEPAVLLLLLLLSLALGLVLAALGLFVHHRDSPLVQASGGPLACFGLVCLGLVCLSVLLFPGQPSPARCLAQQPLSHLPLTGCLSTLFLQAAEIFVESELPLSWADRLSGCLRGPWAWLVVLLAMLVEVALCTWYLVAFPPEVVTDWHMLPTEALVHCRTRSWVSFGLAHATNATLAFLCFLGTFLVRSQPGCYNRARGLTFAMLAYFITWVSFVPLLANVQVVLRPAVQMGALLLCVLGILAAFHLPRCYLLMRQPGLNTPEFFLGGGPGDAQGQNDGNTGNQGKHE
Description: The Gα15 coding sequence was inserted in the HindIII-NotI sites and recombinant virus was generated using the Bac-to-Bac system (Life Technologies). Virus was further amplified by propagation in Sf9 cells grown in suspension using Sf900-II media. Virus titers were determined by plaque assay on Sf9 cells.
Cells were gently mixed with the virus at a multiplicity of infection (MOI) of 5. Using a multidrop, 70 μl per well of the cell and virus mixture was dispensed in a 384-well clear bottom plate (Fisher). After 24 h of incubation in a humidified 37°C tissue culture incubator, trichostatin A was added to a final concentration of 0.3 μM and the cells were incubated for another 18–24 h at 34°C. On the day of the experiment, cells were loaded with 4 μM of the calcium indicator Fluo-4 AM (Invitrogen) in D-PBS for 1 h at room temperature. After washing the cells with D-PBS using a cell washer (BioTek) and a 30-minute rest time, the cell plate and the compound plate were transferred into the FLIPR-Tetra (Molecular Devices). […] Loading and the FLIPR assay were run as described above. When indicated, data for agonist dose-responses were normalized to data obtained with a maximum concentration of sucralose (1 mM) and then fitted and plotted using GraphPad Prism (San Diego, CA) and non-linear regression analysis.
This value, that we termed pEC50Ratio (sucralose) or pEC50R (sucralose), was calculated with EC50 values obtained in the two assay systems. This transformation also allowed determination of an average and a standard error for the pEC50R (sucralose). The two sets of data (DMR and FLIPR data) were then analyzed with an un-paired t-test (α = 0.05). To calculate relative efficacy bias between the two assays, we captured the top asymptote value from each activity-normalized dose-response curve, as provided by the curve fit, calculated an average and a standard deviation (sd) for each agonist and then analyzed the data pairs with an un-paired t-test (α = 0.05). […] The following steps were followed: 1) Using the PRISM software, we re-analyzed each ligand’s dose-response data obtained in each assay with non-linear regression and the users-defined equation “New Operational Model with TauKa ratios” and retrieved logR values from the fits. 2) Subtracted each ligand’s logR value with that of our standard, the sucralose logR value, obtained from the same data set (each ligand dose-response assay data used in this analysis was accompanied with a sucralose dose-response ran on the same day), producing the ΔlogR value for leach ligand in each assay. 3) Calculated the mean and SEM from ΔlogR replicates (from three to nine independent dose-response analysis, in the two different assays). 4) Calculated ΔΔlogR values by subtracting the averaged ligands’ ΔlogR FLIPR values with the averaged ligands’ ΔlogR DMR values.

[7] = Homo sapiens, U2OS, read-out: % inhibition of the S1P DMR response
[8] = Homo sapiens, U2OS, read-out: % inhibition of the sucralose DMR response
[9] = Homo sapiens, U2OS, read-out: % inhibition of the carbachol DMR response
[10] = Homo sapiens, U2OS, read-out: % inhibition of the somatostatin DMR response

CN(C)CCCn1cc(C2=C(c3c[nH]c4ccccc34)C(=O)NC2=O)c2ccccc21 [GF109203x]
% inhibition of the S1P DMR response ([1]; 1 μM S1P): 15% | % inhibition of the EGF DMR response [2]: 22 ± 11% | % inhibition of the sucralose DMR response ([3]; 2 mM sucralose, GF109203x 5 μM, GW583340 10 μM, tyrphostin 1 μM, mean ± sd or average of two experiments): −7 ± 10% | % inhibition of the carbachol DMR response ([4]; 100 μM carbachol, PTx overnight, GF109203x 5 μM, GW583340 10 μM, tyrphostin 1 μM, mean ± sd or average of two experiments): 67 ± 4% | % inhibition of the somatostatin DMR response ([5]; 10 μM somatostatin, PTx overnight, GF109203x 5 μM, GW583340 10 μM, tyrphostin 1 μM, mean ± sd or average of two experiments): 8%

CCn1c(-c2nonc2N)nc2cnc(Oc3cccc(NC(=O)c4ccc(OCCN5CCOCC5)cc4)c3)cc21 [GSK269962]
% inhibition of the S1P DMR response ([1]; 1 μM S1P): 77 ± 14% | effect on the EGF DMR response, in words [2]: not affected | % enhancement of the sucralose DMR response ([3]; 2 mM sucralose, GSK269962 2 μM, mean ± sd, n = 3): 28 ± 11% | effect on the carbachol DMR response, in words ([4]; 100 μM carbachol): not affected | effect on the somatostatin DMR response, in words ([5]; 10 μM somatostatin): not affected

CS(=O)(=O)CCNCc1nc(-c2ccc3ncnc(Nc4ccc(OCc5cccc(F)c5)c(Cl)c4)c3c2)cs1 [GW583340]
inhibition at 10 µM [1, 7]: -16% | effect on the EGF DMR response, in words [2]: abolished | inhibition at 10 µM [3, 8]: 3.1% | inhibition at 10 µM [4, 9]: 7.6% | inhibition at 10 µM [5, 10]: -0.3%

C/C1=C/C(=O)O[C@@H]2C[C@@H](CC[C@H](C)/C=C\C=C\CC1)O[C@@](O)([C@@H]1CSC(=O)N1)C2 [Latrunculin A]
effect on the S1P DMR response, in words ([1]; 1 μM S1P, latrunculin A 1 μM): disrupted | effect on the EGF DMR response, in words [2]: disrupted | effect on the sucralose DMR response, in words ([3]; 2 mM sucralose): disrupted | effect on the carbachol DMR response, in words ([4]; 100 μM carbachol): disrupted | effect on the somatostatin DMR response, in words ([5]; 10 μM somatostatin): disrupted

N#CC(=C(/N)Sc1ccccc1N)/C(C#N)=C(/N)Sc1ccccc1N [U0126]
% inhibition of the S1P DMR response ([1]; 1 μM S1P): 19 ± 26% | % inhibition of the EGF DMR response [2]: 54 ± 15% | effect on the sucralose DMR response, in words ([3]; 2 mM sucralose): no statistically significant effects | effect on the carbachol DMR response, in words ([4]; 100 μM carbachol): no statistically significant effects | effect on the somatostatin DMR response, in words ([5]; 10 μM somatostatin): no statistically significant effects

COc1ccc(OC(C)C(=O)O)cc1 (centres unmarked) [lactisole, 2-(4-methoxyphenoxy)-propionic acid]
DMR response on parental U2OS cells, in words (parental U2OS cells): positive DMR response

OC[C@H]1O[C@@](CO)(O[C@H]2O[C@H](CO)[C@@H](O)[C@H](O)[C@H]2O)[C@@H](O)[C@@H]1O [sucrose]
response in the FLIPR assay, in words [6]: readily detected | DMR response on parental U2OS cells, in words (parental U2OS cells): produced significant DMR responses

COc1cc2ncnc(Nc3cccc(Cl)c3)c2cc1OC [tyrphostin, Tyrphostin AG 1478]
inhibition at 1 µM [1, 7]: -7% | effect on the EGF DMR response, in words [2]: abolished | inhibition at 1 µM [3, 8]: 2.6% | inhibition at 1 µM [4, 9]: -10.8% | inhibition at 1 µM [5, 10]: 3.1%

COC[C@H]1OC(=O)c2coc3c2[C@@]1(C)C1=C(C3=O)[C@@H]2CCC(=O)[C@@]2(C)C[C@H]1OC(C)=O [wortmannin]
% enhancement of the S1P DMR response ([1]; 1 μM S1P, wortmannin 200 nM, mean ± sd, n = 4): 61 ± 22% | inhibition at 0.2 µM ([2]; Homo sapiens, U2OS, read-out: % inhibition of the EGF DMR response): 42 ± 10% | effect on the sucralose DMR response, in words ([3]; 2 mM sucralose): no statistically significant effects | effect on the carbachol DMR response, in words ([4]; 100 μM carbachol): no statistically significant effects | effect on the somatostatin DMR response, in words ([5]; 10 μM somatostatin): no statistically significant effects
